Reference: US5242938A, “Derivatives of virginiamycin M1” (Merck & Co., Inc., priority 1992, dated 1993)
Converted amounts (≈) assume the structure as drawn. Like-named read-outs stand apart in the source and are kept apart here.

Assays:
gastric acid secretion = conditions: cited from earlier work
[1] = tested on: Pseudomonas stutzeri (Mb 1231, ATCC 11607); test: Agar diffusion disc assay, Pseu 1231; type: cell-based; conditions: Stutzerimonas stutzeri, ATCC11607, 18 h
Outline: (§1)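 Serial dilutions from a 1 mg/ml methanol solution, 20 μl applied to 6 mm paper discs, dried, and placed on agar seeded with ~10^6 cfu. Overnight (~18 hours) incubation at 25° C; inhibition zone sizes measured to nearest mm, triplicate means; agar diffusion MIC determined per Barry.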

[2] = tested on: Salmonella gallinarum (Mb 1287); test: Agar diffusion disc assay, Salm 1287; type: cell-based; conditions: Salmonella enterica, GALLINARUM, 18 h, read-out: Inhibition zone diameter, Salm 1287
Outline: as §1

[3] = tested on: Escherichia coli (Mb 1418); test: Agar diffusion disc assay, Coli 1418; type: cell-based; conditions: Escherichia coli, 18 h
Outline: as §1

[4] = tested on: Staphylococcus aureus (Mb 2983); test: Agar diffusion disc assay, Sta 2983; type: cell-based; conditions: Staphylococcus aureus, 18 h
Outline: as §1

[5] = tested on: Streptococcus agalactiae (Mb 2875); test: Agar diffusion disc assay, Str 2875; type: cell-based; conditions: Streptococcus agalactiae, 18 h
Outline: as §1

CCK-A (rat pancreas) [6] = biological target: T1, CCK-A (rat pancreas) (Rattus norvegicus, UniProt P30551); test: [125I]BHCCK-8 radioligand binding, rat pancreatic preparation; conditions: read-out: CCK binding inhibition - IC50, [125I]BHCCK
T1 construct: from tissue; host or cells: rat pancreas
T1 sequence (P30551 1-444): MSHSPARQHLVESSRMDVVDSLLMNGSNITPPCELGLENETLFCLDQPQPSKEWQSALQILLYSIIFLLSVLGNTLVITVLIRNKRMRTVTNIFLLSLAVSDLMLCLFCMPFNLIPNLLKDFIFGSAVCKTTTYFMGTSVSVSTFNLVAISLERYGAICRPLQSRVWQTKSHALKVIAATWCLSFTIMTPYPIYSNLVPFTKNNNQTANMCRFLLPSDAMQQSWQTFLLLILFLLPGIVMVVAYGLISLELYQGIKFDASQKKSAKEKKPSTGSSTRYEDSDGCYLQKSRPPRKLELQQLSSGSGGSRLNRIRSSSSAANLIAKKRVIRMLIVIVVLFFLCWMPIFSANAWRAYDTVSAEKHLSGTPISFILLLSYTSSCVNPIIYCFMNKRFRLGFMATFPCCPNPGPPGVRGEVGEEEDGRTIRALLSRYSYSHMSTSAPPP
Experimental: (§2) The resulting supernatant was re-spun at 20,000×g for 20 minutes. […] Incubations were for 40 minutes at 4° C. and were terminated by filtration and washing with ice cold 100 mM saline. […] Incubations were for 30 minutes at room temperature and were terminated by filtration over GF/C filters and washing with 100 mM NaCl.

[7] = biological target: T2, CCK-B (guinea pig cortex) (Cavia porcellus, UniProt H0VZC5); test: [3H]L-365,260 CCK-B selective antagonist ligand binding, brain membranes; conditions: for percentage in parentheses beside >3.0, [3H]L-365,260 (inhibition at top concentration, not defined): beside IC50 >3.0; for IC50: read-out: CCK binding inhibition - IC50, [3H]L-365,260
T2 construct: guinea pig cortical preparations; from tissue; host or cells: guinea pig brain cortex membranes
T2 sequence (H0VZC5 1-426): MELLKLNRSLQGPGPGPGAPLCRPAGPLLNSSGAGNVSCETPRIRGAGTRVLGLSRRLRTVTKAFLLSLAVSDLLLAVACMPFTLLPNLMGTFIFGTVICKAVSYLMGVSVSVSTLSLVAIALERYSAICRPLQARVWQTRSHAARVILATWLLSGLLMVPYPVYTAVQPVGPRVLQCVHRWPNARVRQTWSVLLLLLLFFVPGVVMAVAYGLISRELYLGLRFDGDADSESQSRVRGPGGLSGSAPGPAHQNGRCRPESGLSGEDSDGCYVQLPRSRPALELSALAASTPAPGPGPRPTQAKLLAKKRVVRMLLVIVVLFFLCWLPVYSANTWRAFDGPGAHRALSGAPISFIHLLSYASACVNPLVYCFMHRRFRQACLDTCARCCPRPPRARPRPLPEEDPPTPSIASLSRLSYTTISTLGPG
Experimental: as §2

CCK-A (rat pancreas) [8] = biological target: T1, CCK-A (rat pancreas); test: [3H]L-364,718 CCK-A selective antagonist ligand binding, pancreas; conditions: read-out: CCK binding inhibition - IC50, [3H]L-364,718
Experimental: as §2

[9] = tested on: En terobacter aergenes (Mb 835); test: Agar diffusion disc assay, Ent 835; type: cell-based; conditions: 18 h, read-out: Inhibition zone diameter, Ent 835
Outline: as §1

[10] = biological target: T2, CCK-B (guinea pig cortex); test: [125I]BHCCK-8 radioligand binding, guinea pig cortical preparation; conditions: read-out: CCK binding inhibition - IC50, [125I]BHCCK
Experimental: as §2

[11] = tested on: Corynebacterium pseudodiphtheriticum (Mb 261, ATCC 9742); test: Agar diffusion disc assay, Cory 261; type: cell-based; conditions: Corynebacterium pseudodiphtheriticum, ATCC9742, 18 h
Outline: as §1

[12] = tested on: Bacillus subtilis (Mb 964, ATCC 6633); test: Agar diffusion disc assay, Subt 964; type: cell-based; conditions: Bacillus subtilis, ATCC6633, 18 h, read-out: Inhibition zone diameter, Subt 964
Outline: as §1

[13] = tested on: Staphylococcus aureus (Mb 108, ATCC 6538P); test: Agar diffusion disc assay, Sta 108; type: cell-based; conditions: Staphylococcus aureus, ATCC6538P, 18 h
Outline: as §1

[14] = tested on: Streptococcus faecium (Mb 2820); test: Agar diffusion disc assay, Str 2820; type: cell-based; conditions: Enterococcus faecium, 18 h
Outline: as §1

[15] = tested on: Micrococcus luteus (Mb 1101, ATCC 9341); test: Agar diffusion disc assay, Micr 1101; type: cell-based
Outline: as §1

Bacillus sp. (Mb 633) = test: Agar diffusion disc assay, Baci 633; type: cell-based; conditions: Bacillus, 18 h, @ 20 g/disc; read-out: Inhibition zone diameter, Baci 633
Outline: as §1

## Gastrin-17
Gastric acid secretion
  potency for stimulating gastric acid secretion relative to Gastrin-13: 2.5 times
  potency for stimulating gastric acid secretion relative to Gastrin-34: 5 times

## CNC(=O)O[C@@H]1/C=C(C)/C=C/CNC(=O)/C=C/[C@@H](C)[C@@H](C(C)C)OC(=O)C2=CCCN2C(=O)c2coc(n2)CC(=O)C1 [Example 7]
[1]; @ 20 g/disc, read-out: Inhibition zone diameter, Pseu 1231
  zone of inhibition at 20 µg/disc: 0 mm
[2]; @ 20 g/disc
  zone of inhibition at 20 µg/disc: 0 mm
[3]; @ 20 g/disc, read-out: Inhibition zone diameter, Coli 1418
  zone of inhibition at 20 µg/disc: 0 mm
[4]; @ 20 g/disc, read-out: Inhibition zone diameter, Sta 2983
  zone of inhibition at 20 µg/disc: 11 mm
[5]; @ 20 g/disc, read-out: Inhibition zone diameter, Str 2875
  zone of inhibition at 20 µg/disc: 16 mm
CCK-A (rat pancreas) [6]
  IC50: > 3 µM
[7]
  A.R. = agonist ratio = IC50([3H]L365,260)/IC50([125I]CCK): 19
  percentage in parentheses beside >3.0, [3H]L-365,260 (inhibition at top concentration, not defined): 14%
  IC50: > 3 µM
CCK-A (rat pancreas) [8]
  IC50: > 3 µM
[9]; @ 20 g/disc
  zone of inhibition at 20 µg/disc: 0 mm
[10]
  IC50: 0.8 µM
[11]; @ 20 g/disc, read-out: Inhibition zone diameter, Cory 261
  zone of inhibition at 20 µg/disc: 22 mm
[12]; @ 20 g/disc
  zone of inhibition at 20 µg/disc: 0 mm
[13]; @ 20 g/disc, read-out: Inhibition zone diameter, Sta 108
  zone of inhibition at 20 µg/disc: 19 mm
[14]; @ 20 g/disc, read-out: Inhibition zone diameter, Str 2820
  zone of inhibition at 20 µg/disc: 10 mm
[15]; Micrococcus luteus, ATCC9341, 18 h; @ 20 g/disc; read-out: Inhibition zone diameter, Micr 1101
  zone of inhibition at 20 µg/disc: 27 mm
[15]; Micrococcus luteus, ATCC9341, 18 h; read-out: Agar Diffusion MIC versus Micrococcus luteus
  MIC: 1.74 µM (≈ 1.01 µg/mL)
[15]; Micrococcus luteus, ATCC9341; 1.25 μg/disc; 25° C., ~18 hours; read-out: Mean of triplicate zone size versus Micrococcus luteus
  zone of inhibition at 1.25 µg/disc: 8 mm
[15]; Micrococcus luteus, ATCC9341; 2.50 μg/disc; 25° C., ~18 hours; read-out: Mean of triplicate zone size versus Micrococcus luteus
  zone of inhibition at 2.5 µg/disc: 13 mm
[15]; Micrococcus luteus, ATCC9341; 5.00 μg/disc; 25° C., ~18 hours; read-out: Mean of triplicate zone size versus Micrococcus luteus
  zone of inhibition at 5 µg/disc: 18 mm
[15]; Micrococcus luteus, ATCC9341; 10.0 μg/disc; 25° C., ~18 hours; read-out: Mean of triplicate zone size versus Micrococcus luteus
  zone of inhibition at 10 µg/disc: 22 mm
[15]; Micrococcus luteus, ATCC9341; 20.0 μg/disc; 25° C., ~18 hours; read-out: Mean of triplicate zone size versus Micrococcus luteus
  zone of inhibition at 20 µg/disc: 25 mm
Bacillus sp. (Mb 633)
  zone of inhibition at 20 µg/disc: 7 mm

## CC1=C\[C@@H](OC(=O)Cc2ccccc2)CC(=O)Cc2nc(co2)C(=O)N2CCC=C2C(=O)O[C@H](C(C)C)[C@H](C)/C=C/C(=O)NC\C=C\1 [Example 5]
[1]; read-out: Inhibition zone diameter, Pseu 1231, @ 20 g/disc
  zone of inhibition at 20 µg/disc: 0 mm
[2]
  zone of inhibition at 20 µg/disc: 0 mm
[3]; read-out: Inhibition zone diameter, Coli 1418, @ 20 g/disc
  zone of inhibition at 20 µg/disc: 0 mm
[4]; read-out: Inhibition zone diameter, Sta 2983, @ 20 g/disc
  zone of inhibition at 20 µg/disc: 0 mm
[5]; read-out: Inhibition zone diameter, Str 2875, @ 20 g/disc
  zone of inhibition at 20 µg/disc: 0 mm
CCK-A (rat pancreas) [6]
  IC50: > 3 µM
[7]
  A.R. = agonist ratio = IC50([3H]L365,260)/IC50([125I]CCK): ~ 10
  percentage in parentheses beside >3.0, [3H]L-365,260 (inhibition at top concentration, not defined): 40%
  IC50: > 3 µM
CCK-A (rat pancreas) [8]
  IC50: > 3 µM
[9]
  zone of inhibition at 20 µg/disc: 0 mm
[10]
  IC50: 0.6 µM
[11]; read-out: Inhibition zone diameter, Cory 261, @ 20 g/disc
  zone of inhibition at 20 µg/disc: 0 mm
[12]
  zone of inhibition at 20 µg/disc: 0 mm
[13]; read-out: Inhibition zone diameter, Sta 108, @ 20 g/disc
  zone of inhibition at 20 µg/disc: 0 mm
[14]; read-out: Inhibition zone diameter, Str 2820, @ 20 g/disc
  zone of inhibition at 20 µg/disc: 0 mm
[15]; Micrococcus luteus, ATCC9341, 18 h, read-out: Agar Diffusion MIC versus Micrococcus luteus
  MIC: 0.41 µM (≈ 0.264 µg/mL)
[15]; Micrococcus luteus, ATCC9341, 18 h, read-out: Inhibition zone diameter, Micr 1101, @ 20 g/disc
  zone of inhibition at 20 µg/disc: 12 mm
[15]; Micrococcus luteus, ATCC9341, 18 h, read-out: Mean of triplicate zone size versus Micrococcus luteus, 5.00 μg/disc; 25° C., ~18 hours
  zone of inhibition at 5 µg/disc: 10 mm
[15]; Micrococcus luteus, ATCC9341, 18 h, read-out: Mean of triplicate zone size versus Micrococcus luteus, 20.0 μg/disc; 25° C., ~18 hours
  zone of inhibition at 20 µg/disc: 13 mm
[15]; Micrococcus luteus, ATCC9341, 18 h, read-out: Mean of triplicate zone size versus Micrococcus luteus, 40.0 μg/disc; 25° C., ~18 hours
  zone of inhibition at 40 µg/disc: 14 mm
[15]; Micrococcus luteus, ATCC9341, 18 h, read-out: Mean of triplicate zone size versus Micrococcus luteus, 80.0 μg/disc; 25° C., ~18 hours
  zone of inhibition at 80 µg/disc: 14 mm
Bacillus sp. (Mb 633)
  zone of inhibition at 20 µg/disc: 0 mm
